US10899737B2, “Piperazine carbamates and methods of making and using same” (Lundbeck La Jolla Research Center, Inc., priority 2016, dated 2021)

Experiments:
Assay type in all cases: biochemical
ABHD6 [1] = target: T1, ABHD6 (Homo sapiens, UniProt Q9BV23); assay: In vitro competitive activity-based protein profiling (human), ABHD6; details: human PC3
T1 construct: Proteomes (human prefrontal cortex or cell membrane fractions); endogenous in cells; human prefrontal cortex
T1 sequence (Q9BV23 1-337): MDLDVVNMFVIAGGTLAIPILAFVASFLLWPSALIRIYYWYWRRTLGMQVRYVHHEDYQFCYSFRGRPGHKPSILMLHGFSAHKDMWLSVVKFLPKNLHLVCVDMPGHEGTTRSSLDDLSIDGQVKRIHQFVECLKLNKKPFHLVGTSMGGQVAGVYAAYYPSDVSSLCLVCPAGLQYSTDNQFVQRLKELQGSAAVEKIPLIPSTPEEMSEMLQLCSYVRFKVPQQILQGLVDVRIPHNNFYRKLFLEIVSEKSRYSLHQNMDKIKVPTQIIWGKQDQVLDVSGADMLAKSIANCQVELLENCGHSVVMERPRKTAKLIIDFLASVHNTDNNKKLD
Experimental: (§1) In Vitro Competitive Activity-Based Protein Profiling (Human).
(§2) Proteomes (human prefrontal cortex or cell membrane fractions) (50 μL, 1.0-2.0 mg/mL total protein concentration) were preincubated with varying concentrations of inhibitors at 37° C. After 30 min, FP-Rh or JW912 (1.0 μL, 50 μM in DMSO) was added and the mixture was incubated for another 30 min at room temperature. Reactions were quenched with SDS loading buffer (15 μL-4×) and run on SDS-PAGE. Following gel imaging, serine hydrolase activity was determined by measuring fluorescent intensity of gel bands corresponding to MAGL and ABHD6 using ImageJ 1.49 k software.

MAGL [2] = target: T2, MAGL (Homo sapiens, UniProt Q99685); assay: In vitro competitive activity-based protein profiling (human), MAGL; details: for inhibition at 1 µM: 1 μM inhibitor, human proteome, 30 min preincubation at 37° C, read-out: MAGL % inh. 1 μM (human); for IC50: human PC3
T2 construct: Proteomes (human prefrontal cortex or cell membrane fractions); from tissue
T2 sequence (Q99685 1-303): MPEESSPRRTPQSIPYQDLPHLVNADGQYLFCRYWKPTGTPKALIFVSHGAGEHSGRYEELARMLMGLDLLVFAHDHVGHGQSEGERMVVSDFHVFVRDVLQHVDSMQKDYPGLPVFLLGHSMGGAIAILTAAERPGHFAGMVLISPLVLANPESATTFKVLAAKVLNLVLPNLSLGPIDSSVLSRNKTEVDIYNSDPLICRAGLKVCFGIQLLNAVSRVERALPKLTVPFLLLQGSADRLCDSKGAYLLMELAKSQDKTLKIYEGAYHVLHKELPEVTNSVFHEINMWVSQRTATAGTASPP
Experimental: as §1, §2

MAGL [3] = target: T3, MAGL (Mus musculus, UniProt O35678); assay: In vitro competitive activity-based protein profiling (mouse), MAGL; details: 1 μM inhibitor, mouse brain membrane fraction or cell lysates; read-out: MAGL % inh. 1 μM (mouse)
T3 construct: Proteomes (mouse brain membrane fraction or cell lysates); from tissue; host or cells: mouse brain membrane fraction or cell lysates
T3 sequence (O35678 1-303): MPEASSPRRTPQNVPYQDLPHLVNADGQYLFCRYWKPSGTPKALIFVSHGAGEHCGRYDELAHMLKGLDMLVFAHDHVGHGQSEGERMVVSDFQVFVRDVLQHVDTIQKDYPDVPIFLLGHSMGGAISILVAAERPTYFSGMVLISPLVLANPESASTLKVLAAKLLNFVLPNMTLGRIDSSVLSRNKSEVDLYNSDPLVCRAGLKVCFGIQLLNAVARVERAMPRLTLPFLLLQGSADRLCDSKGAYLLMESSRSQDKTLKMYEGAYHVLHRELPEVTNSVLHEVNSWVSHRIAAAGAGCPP
Experimental: (§3) In Vitro Competitive Activity-Based Protein Profiling (Mouse).
(§4) Proteomes (mouse brain membrane fraction or cell lysates) (50 μL, 1.0 mg/mL total protein concentration) were preincubated with varying concentrations of inhibitors at 37° C. After 30 min, FP-Rh (1.0 μL, 50 μM in DMSO) was added and the mixture was incubated for another 30 min at 37° C. Reactions were quenched with SDS loading buffer (50 μL-4×) and run on SDS-PAGE. Following gel imaging, serine hydrolase activity was determined by measuring fluorescent intensity of gel bands corresponding to MAGL and ABHD6 using ImageJ 1.49 k software. Data from this assay is shown in Table 1 (% inhibition at 1 μM).

ABHD6 [4] = target: T4, ABHD6 (Mus musculus, UniProt Q8R2Y0); assay: In vitro competitive activity-based protein profiling (mouse), ABHD6; details: 1 μM inhibitor, mouse brain membrane fraction or cell lysates; read-out: ABHD6 % inh. 1 μM (mouse)
T4 construct: Proteomes (mouse brain membrane fraction or cell lysates); from tissue; host or cells: mouse brain membrane fraction or cell lysates
T4 sequence (Q8R2Y0 1-336): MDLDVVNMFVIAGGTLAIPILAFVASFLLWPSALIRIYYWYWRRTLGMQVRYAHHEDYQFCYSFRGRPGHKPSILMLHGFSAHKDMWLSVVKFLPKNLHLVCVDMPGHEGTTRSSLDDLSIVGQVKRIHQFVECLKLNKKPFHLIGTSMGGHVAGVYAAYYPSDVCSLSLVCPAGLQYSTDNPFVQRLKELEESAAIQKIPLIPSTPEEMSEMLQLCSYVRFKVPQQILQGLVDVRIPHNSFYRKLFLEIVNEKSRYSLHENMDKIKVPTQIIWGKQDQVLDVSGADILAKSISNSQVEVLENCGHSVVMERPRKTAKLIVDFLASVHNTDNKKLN
Experimental: as §3, §4

SMILES	IC50 (ABHD6 [1]) [µM]	inhibition at 1 µM (MAGL [2]) [%]	IC50 (MAGL [2]) [µM]	inhibition at 1 µM (MAGL [3]) [%]	inhibition at 1 µM (ABHD6 [4]) [%]
O=C(OC(C(F)(F)F)C(F)(F)F)N1CCN(Cc2cc(C(F)(F)F)cc(C3(C(=O)O)CCCC3)c2)CC1 [Example 1, 1-(3-((4-(((1,1,1,3,3,3-Hexafluoropropan-2-yl)oxy)carbonyl)piperazin-1-yl)methyl)-5-(trifluoromethyl)phenyl)cyclopentane-1-carboxylic Acid]	0.1 to 1	≥ 75	≤ 0.1	≥ 75	≥ 75
O=C(O)Cn1ccc(-c2ccccc2CN2CCN(C(=O)OC(C(F)(F)F)C(F)(F)F)CC2)n1 [Example 11, 2-(3-(2-((4-(((1,1,1,3,3,3-Hexafluoropropan-2-yl)oxy)carbonyl)piperazin-1-yl)methyl)phenyl)-1H-pyrazol-1-yl)acetic Acid]	1 to 10	≥ 75	0.1 to 1	≥ 75	0 to 25
Cc1ccc(CN2CCN(C(=O)OC(C(F)(F)F)C(F)(F)F)CC2)c(C2(C(=O)O)CCCC2)c1 [Example 14, 1-(2-((4-(((1,1,1,3,3,3-Hexafluoropropan-2-yl)oxy)carbonyl)piperazin-1-yl)methyl)-5-methylphenyl)cyclopentane-1-carboxylic Acid]	1 to 10	≥ 75	≤ 0.1	≥ 75	0 to 25
CC(C)(C(=O)O)N1CC2CN(c3cc(C(F)(F)F)ccc3CN3CCN(C(=O)OC(C(F)(F)F)C(F)(F)F)CC3)CC2C1 (centres unmarked) [Example 16, 2-(5-(2-((4-(((1,1,1,3,3,3-Hexafluoropropan-2-yl)oxy)carbonyl)piperazin-1-yl)methyl)-5-(trifluoromethyl)phenyl)hexahydropyrrolo[3,4-c]pyrrol-2(1H)-yl)-2-methylpropanoic Acid]	1 to 10	≥ 75	≤ 0.1	≥ 75	0 to 25
N#Cc1ccc(CN2CCN(C(=O)OC(C(F)(F)F)C(F)(F)F)CC2)c(C2(C(=O)O)CCCC2)c1 [Example 30, 1-(5-Cyano-2-((4-(((1,1,1,3,3,3-hexafluoropropan-2-yl)oxy)carbonyl)piperazin-1-yl)methyl)phenyl)cyclopentane-1-carboxylic Acid]	–	–	–	≥ 75	0 to 25
O=C(O)CN1CCC(C2CCN(c3cc(Cl)ccc3CN3CCN(C(=O)OC(C(F)(F)F)C(F)(F)F)CC3)CC2)C1 (centres unmarked) [Example 33, 2-(3-(1-(5-Chloro-2-((4-(((1,1,1,3,3,3-hexafluoropropan-2-yl)oxy)carbonyl)piperazin-1-yl)methyl)phenyl)piperidin-4-yl)pyrrolidin-1-yl)acetic Acid]	–	≥ 75	–	≥ 75	50 to 75
N#Cc1ccc(CN2CCN(C(=O)OC(C(F)(F)F)C(F)(F)F)CC2)c(-c2ccn(CC(=O)O)n2)c1 [Example 50, 2-(3-(5-cyano-2-((4-(((1,1,1,3,3,3-hexafluoropropan-2-yl)oxy)carbonyl)piperazin-1-yl)methyl)phenyl)-1H-pyrazol-1-yl)acetic acid]	–	≥ 75	–	≥ 75	≥ 75
CN1CCN(c2cc(C(F)(F)F)ccc2CN2CCN(C(=O)OC(C(F)(F)F)C(F)(F)F)CC2)CC1C(=O)O (centres unmarked) [Example 58, 4-(2-((4-(((1,1,1,3,3,3-hexafluoropropan-2-yl)oxy)carbonyl)piperazin-1-yl)methyl)-5-(trifluoromethyl)phenyl)-1-methylpiperazine-2-carboxylic acid]	–	≥ 75	–	≥ 75	0 to 25
O=C(O)C1CCN(c2cc(Cl)c(F)cc2CN2CCN(C(=O)OC(C(F)(F)F)C(F)(F)F)CC2)CC1 [Example 60, 1-(5-chloro-4-fluoro-2-((4-(((1,1,1,3,3,3-hexafluoropropan-2-yl)oxy)carbonyl)piperazin1-yl)methyl)phenyl)piperidine-4-carboxylic acid]	–	≥ 75	–	≥ 75	≥ 75
O=C(O)C1CCCCN1c1cc(C(F)(F)F)ccc1CN1CCN(C(=O)OC(C(F)(F)F)C(F)(F)F)CC1 (centres unmarked) [Example 65, 1-(2-((4-(((1,1,1,3,3,3-hexafluoropropan-2-yl)oxy)carbonyl)piperazin-1-yl)methyl)-5-(trifluoromethyl)phenyl)piperidine-2-carboxylic acid]	–	50 to 75	–	≥ 75	0 to 25
O=C(O)C1CCN(c2c(CN3CCN(C(=O)OC(C(F)(F)F)C(F)(F)F)CC3)cccc2C(F)(F)F)CC1 [Example 74, 1-(2-((4-(((1,1,1,3,3,3-hexafluoropropan-2-yl)oxy)carbonyl)piperazin-1-yl)methyl)-6-(trifluoromethyl)phenyl)piperidine-4-carboxylic acid]	–	≥ 75	–	≥ 75	≥ 75
O=C(O)C1CCN(c2c(Cl)cccc2CN2CCN(C(=O)OC(C(F)(F)F)C(F)(F)F)CC2)CC1 [Example 75, 1-(2-chloro-6-((4-(((1,1,1,3,3,3-hexafluoropropan-2-yl)oxy)carbonyl)piperazin-1-yl)methyl)phenyl)piperidine-4-carboxylic acid]	–	≥ 75	–	≥ 75	50 to 75
Cc1cc(N2CCC(C(=O)O)CC2)c(CN2CCN(C(=O)OC(C(F)(F)F)C(F)(F)F)CC2)cc1F [Example 76, 1-(4-fluoro-2-((4-(((1,1,1,3,3,3-hexafluoropropan-2-yl)oxy)carbonyl)piperazin-1-yl)methyl)-5-methylphenyl)piperidine-4-carboxylic acid]	1 to 10	–	≤ 0.1	–	–
O=C(O)C1CCN(c2ccc(CN3CCN(C(=O)OC(C(F)(F)F)C(F)(F)F)CC3)cc2)CC1 [Example 77, 1-(4-((4-(((1,1,1,3,3,3-hexafluoropropan-2-yl)oxy)carbonyl)piperazin-1-yl)methyl)phenyl)piperidine-4-carboxylic acid]	–	–	–	≥ 75	≥ 75
O=C(O)C1CN(c2cc(C(F)(F)F)ccc2CN2CCN(C(=O)OC(C(F)(F)F)C(F)(F)F)CC2)C1 [Example 79, 1-(2-((4-(((1,1,1,3,3,3-hexafluoropropan-2-yl)oxy)carbonyl)piperazin-1-yl)methyl)-5-(trifluoromethyl)phenyl)azetidine-3-carboxylic acid]	–	≥ 75	–	≥ 75	≥ 75
C#Cc1ccc(CN2CCN(C(=O)OC(C(F)(F)F)C(F)(F)F)CC2)c(N2CCC(C(=O)O)CC2)c1 [Example 82, 1-(5-ethynyl-2-((4-(((1,1,1,3,3,3-hexafluoropropan-2-yl)oxy)carbonyl)piperazin-1-yl)methyl)phenyl)piperidine-4-carboxylic acid]	–	≥ 75	–	≥ 75	50 to 75
